Columns and labels:
L. monocytogenes [1] = settings: literature, in words; cited from earlier work
S. aureus [2] = settings: literature, in words; cited from earlier work
esterases = settings: cited from earlier work
E. faecalis = experiment: MIC on E. faecalis enterococcal strains (microplate dilution, CLSI); format: cell-based, Enterococcus faecalis
Text: (§1) The strains tested are reference strains and cultures that are multi-antibiotic resistant; these are clinical strains that were isolated at the “Hospice de Lyon” and are as follows: • Staphylococcus S. aureus: ATCC® 29213™, ATCC 25923, • Methicillin-resistant S. aureus staphylococcus strains (Lac-Deleo USA 300), (MU 3), (HT 2004-0012), LY 199-0053, (HT 2002-0417), (HT 2006-1004), • Daptomycin-resistant S. aureus staphylococcus strains (ST 2015-0188) (ST 2014 1288), (ST 2015-0989). • Enterococci: E. faecalis (ATCC® 29212™, clinical strains of E. faecalis enterococcus, isolated from urine: strain 015206179901 (hereinafter 9901), strain 015205261801 (hereinafter 1801) • Enterococci: E. faecium (CIP 103510), clinical strains of E. faecium enterococcus: Van A 0151850763 (hereinafter Van A); strain 015 205731401 (hereinafter 1401), • Listeria: L. monocytogenes (CIP 103575), clinical strains isolated from blood culture (015189074801, LM1), strain isolated from cerebrospinal fluid (015170199001, LM2), clinical strain isolated from blood culture (015181840701, LM3).
(§2) The cultures studied, freshly isolated (after incubation on blood agar at 37° C. for 18 h), are taken up in sterile water (10 ml) until a 0.5 McFarland (Mc), i.e. 1 to 2×10^8 CFU (bacteria)/cm^3, suspension is obtained. The bacterial suspension was then diluted in order to obtain a final concentration of 1×10^6 CFU/cm^3.
(§3) Each well contains a final identical amount of Mueller-Hinton medium (rich medium enabling bacterial culture) and of bacteria of 0.5×10^6 CFU/cm^3.
(§4) The compounds of interest to be tested are dissolved in ethanol or DMSO at 25 mg/ml before being diluted, with the dilution being doubled each time, to different concentrations. […]
(§5) The minimum inhibitory […] (MIC) are determined on Gram-positive bacterial strains according to the recommendations of the “Clinical Laboratory Standards Institute” (Clinical-Laboratory-Standards-Institute, 6th ed. Approved standard M100-S17. CLSI, Wayne, Pa., 2007). […]

E. faecium = experiment: MIC on E. faecium enterococcal strains (microplate dilution, CLSI); format: cell-based, Enterococcus faecium
Text: as §1, §2, §3, §4, §5

S. aureus [3] = experiment: MIC on S. aureus staphylococcal strains (microplate dilution, CLSI); format: cell-based, Staphylococcus aureus
Text: as §1, §2, §3
The compounds of interest to be tested are dissolved in ethanol or DMSO at 25 mg/ml before being diluted, with the dilution being doubled each time, to different concentrations. On the multi-well plate, a first series was provided comprising the culture medium without the compound of interest to be tested. This corresponds to the growth control (control wells). These controls serve as a reference for comparing bacterial growth with those of the following wells comprising different concentrations of the compound of interest to be tested. The second series of wells comprises the parent solution of the compound of interest to be tested for a concentration in the well of 256 mg/l (7 mM). Each series of wells was diluted, with the dilution being doubled each time, until the last series for a final concentration of 0.25 mg/l (0.0007 mM). Each concentration is duplicated within the same plate. The plate is incubated for 18 h at 37° C. […] In the case of antibacterial activity, bacterial growth is inhibited which is reflected by the absence of appearance of cloudiness or bacterial pellet.
The minimum inhibitory […] (MIC) are determined on Gram-positive bacterial strains according to the recommendations of the “Clinical Laboratory Standards Institute” (Clinical-Laboratory-Standards-Institute, 6th ed. Approved standard M100-S17. CLSI, Wayne, Pa., 2007).
as §2, with “i.e.” for “i.e. 1”, “10^8” for “2×10^8”, “10^6” for “1×10^6”

L. monocytogenes [4] = experiment: MIC on strains of Listeria (microplate dilution, CLSI); format: cell-based, Listeria monocytogenes
Text: as §1, §2, §3
The compounds of interest to be tested are dissolved in ethanol or DMSO at 25 mg/ml before being diluted, with the dilution being doubled each time, to different concentrations. On the multi-well plate, a first series was provided comprising the culture medium without the compound of interest to be tested. This corresponds to the growth control (control wells). These controls serve as a reference for comparing bacterial growth with those of the following wells comprising different concentrations of the compound of interest to be tested. The second series of wells comprises the parent solution of the compound of interest to be tested for a concentration in the well of 256 mg/l (7 mM). Each series of wells was diluted, with the dilution being doubled each time, until the last series for a final concentration of 0.25 mg/l (0.0007 mM). Each concentration is duplicated within the same plate. The plate is incubated for 18 h at 37° C. […]
as §5

Dodecanoyl sucrose
activity against L. monocytogenes (L. monocytogenes [1]): particularly active | inhibition of the growth of S. aureus (S. aureus [2]): weakly inhibiting the growth

CCCCCCCCCCCC1OCC2O[C@H](OC)C(O)C(O)[C@H]2O1 (stereo partly drawn) [compound 1d, Methyl 4,6-O-dodecylidene-α-D-galactopyranoside]
melting point: 115 °C

CCCCCCCCCCCC(=O)OCC(O)CO (stereo not shown) [monolaurin]
degradation / half-life (ester function sensitive to esterases) (esterases): quickly degraded

3-O-Dodecyl-1,4-D-sorbitan, 5-O-dodecyl-1,4-D-sorbitan and 6-O-dodecyl-1,4-D-sorbitan [reference compound]
Minimum inhibitory concentration (MIC) (E. faecalis; E. faecalis ATCC 29212): 8 µg/mL | Minimum inhibitory concentration (MIC) (E. faecalis; E. faecalis clinical strain 1801 (urine)): 8 µg/mL | Minimum inhibitory concentration (MIC) (E. faecalis; E. faecalis clinical strain 9901 (urine)): 16 µg/mL | Minimum inhibitory concentration (MIC) (E. faecium; E. faecium CIP 103510): 16 µg/mL | Minimum inhibitory concentration (MIC) (E. faecium; E. faecium clinical strain 1401): 8 µg/mL | Minimum inhibitory concentration (MIC) (E. faecium; E. faecium clinical strain Van A): 16 µg/mL | Minimum inhibitory concentration (MIC) (S. aureus [3]; S. aureus ATCC 25923, reference strain): 32 µg/mL | Minimum inhibitory concentration (MIC) (S. aureus [3]; S. aureus ATCC 29213, reference strain): 32 µg/mL | Minimum inhibitory concentration (MIC) (S. aureus [3]; daptomycin-resistant S. aureus ST 2014 1288): 64 µg/mL | Minimum inhibitory concentration (MIC) (S. aureus [3]; daptomycin-resistant S. aureus ST 2015-0188): 64 µg/mL | Minimum inhibitory concentration (MIC) (S. aureus [3]; daptomycin-resistant S. aureus ST 2015-0989): 256 µg/mL | Minimum inhibitory concentration (MIC) (S. aureus [3]; methicillin-resistant S. aureus HT 2002-0417): 32 µg/mL | Minimum inhibitory concentration (MIC) (S. aureus [3]; methicillin-resistant S. aureus HT 2004-0012): 32 µg/mL | Minimum inhibitory concentration (MIC) (S. aureus [3]; methicillin-resistant S. aureus HT 2006-1004): 32 µg/mL | Minimum inhibitory concentration (MIC) (S. aureus [3]; methicillin-resistant S. aureus LY 199-0053): 32 µg/mL | Minimum inhibitory concentration (MIC) (S. aureus [3]; methicillin-resistant S. aureus Lac-Deleo USA 300): 32 µg/mL | Minimum inhibitory concentration (MIC) (S. aureus [3]; methicillin-resistant S. aureus MU 3): 64 µg/mL | Minimum inhibitory concentration (MIC) (L. monocytogenes [4]; L. monocytogenes CIP 103575): 32 µg/mL | Minimum inhibitory concentration (MIC) (L. monocytogenes [4]; L. monocytogenes clinical strain LM1 (blood culture)): 16 µg/mL | Minimum inhibitory concentration (MIC) (L. monocytogenes [4]; L. monocytogenes clinical strain LM2 (cerebrospinal fluid)): 32 µg/mL | Minimum inhibitory concentration (MIC) (L. monocytogenes [4]; L. monocytogenes clinical strain LM3 (blood culture)): 32 µg/mL

Reference: patent US20200281956A1, “ANTIBACTERIAL COMPOSITION CONTAINING A DEOXYHEXOSE ALKYL MONOACETAL OR MONOETHER” (TEREOS STARCH & SWEETENERS BELGIUM, priority 2015, published 2020)
